Test results: patent US20080280837A1, “Biologically Active Compounds with Anti-Angiogenic Properties” (priority 2004, published 2008)

Assays:
[1] = Solubility of salts of compound 1; type: physicochemical; settings: Water, overnight; listed as Free Base (Compound 1)
SSTR-3 = target: T1, SSTR-3 (Homo sapiens, UniProt P32745); assay: Radioligand binding screen against somatostatin subtype SSTR-3
T1 construct: expressed in transfected cells
Method: Receptor membrane preparations containing the desired cloned receptor (for example cloned human somatostatin receptor subtype 5, SSTR5) and radio-labeled ligand (for example 3-[^125I]iodotyrosyl^11 Somatostatin-14)) were diluted at the concentration required for testing and according to the specific parameters associated with the selected receptor-ligand combination, including receptor Bmax, ligand Kd and any other parameters necessary to optimize the experimental conditions. When tested for competition activity to the reference ligand, “compound 1” was mixed with membrane suspension and the radiolabeled reference ligand (with or without an excess of cold ligand to the receptor for determination of non-specific binding) and incubated at the temperature required by internal standard operating procedures. Following incubation, the binding reaction was stopped by the addition of ice-cold washing buffer and filtered on appropriate filters, which are then counted. Data analysis and curve-fitting was performed with XLfit (IDBS).
10 mM solutions of test compounds in 100% DMSO were prepared. ˜160 μl was used for each dilution (20 μl/well in triplicate).
A 1.25 mM assay stock was prepared by making a 1:8 dilution of the 10 mM solution. (To 30 μL of the 10 mM solution was added 210 μL milli-Q H2O. A 1:5 dilution series in milli-Q H2O was then prepared.
In primary screening experiments compounds were tested in duplicate for a particular concentration.

[2] = test system: MV522 human NSCLC tumour xenograft; assay: Nude mouse model of human MV522 non-small cell lung cancer tumours; type: in vivo, nude mice
Method: Initial Maximum Tolerated Dose (MTD) studies were done in male nude mice to determine the appropriate intravenous dosing regimen for the MV522 human NSCLC tumour model. A range of doses between 0 and 50 mg/Kg for 28 days (qdx28) were tested. Mice were randomized into groups with 5 animals per group including vehicle control. Animals were weighed twice weekly starting on day one and observed daily for adverse reactions or toxicity due to the agent. MTD studies determined the selection of 20 mg/kg and 35 mg/kg for intravenous dosing once per day for 28 days in the MV522 human NSCLC tumour xenograft model.
Male nude mice (nu/nu) between 5 and 6 weeks of age weighing approximately 20 g were implanted subcutaneously (s.c) by trocar with fragments of MV522 human tumour carcinomas harvested from s.c growing tumours in host mice. MV-522 is a metastatic human lung adenocarcinoma line. When tumours reached approximately 72 mg in size animals were pair matched into treatment and control groups with 10 mice in each group. Each mouse was tagged and followed individually throughout the experiment.
“Compound 1” was administered i.v. in a saline vehicle from day one. Vehicle control group animals were administered saline i.v. There were nine treatment groups including the vehicle control group. […]
At the end of the treatment period the mice were weighed and sacrificed. Each tumour was excised and weighed and a mean actual tumour weight (mg) per group was calculated along with the mean actual volume (mm^3). […] Mean tumour regression was determined using the formula [1−(mean actual tumour weightFINAL/mean tumour weightDAY 1)×100%].

HUVEC tube formation = assay: Matrigel tube formation assay; type: cell-based, human; settings: Homo sapiens, 22 h
Method: HUVEC (Clonetics) were plated in 96 well plates in EGM-2 media (Clonetics) at 2.5 to 3×10^4 cells per well. Cells of less than 6 passages were used in all studies. Wells were precoated with 50 μL growth factor containing Matrigel (Becton Dickinson). HUVEC were allowed to form tubes by incubation at 37° C. in 5% CO2 for 22 hrs. In test wells compound was added in the desired concentration. Photographic images of the wells ×4 magnification were used to determine size of the tubes, length of tubes and number of junctions using image analysis software.

T1 sequence (P32745 whole entry): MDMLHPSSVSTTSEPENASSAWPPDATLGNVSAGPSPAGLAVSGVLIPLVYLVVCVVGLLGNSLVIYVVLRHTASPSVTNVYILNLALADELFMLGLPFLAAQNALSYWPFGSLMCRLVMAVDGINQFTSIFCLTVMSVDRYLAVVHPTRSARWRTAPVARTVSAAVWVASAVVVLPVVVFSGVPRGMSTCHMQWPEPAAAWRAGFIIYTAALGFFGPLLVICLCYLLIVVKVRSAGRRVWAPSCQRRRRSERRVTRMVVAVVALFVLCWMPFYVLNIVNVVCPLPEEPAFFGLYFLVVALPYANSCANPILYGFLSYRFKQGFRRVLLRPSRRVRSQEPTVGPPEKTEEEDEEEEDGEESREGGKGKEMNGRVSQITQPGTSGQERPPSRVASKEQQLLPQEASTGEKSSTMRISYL

Solubility in Water [1]: >200 µg/mL
IC50 (SSTR-3; concentration required to displace 50% of the competitive radioligand, read-out: IC50 SSTR3): 8.5 µM
selectivity SSTR3 (SSTR-3; normalized IC50: lowest IC50 for a compound = 1): 26.4
Hillslope SSTR3 (SSTR-3; slope of binding curve): 1.04
Compound: COC[C@H]1O[C@H](OCCc2ccccc2)[C@H](NC(=O)CCCN)[C@@H](OCc2ccc3ccccc3c2)[C@@H]1O [Compound 1]
Tumour growth inhibition (TGI) ([2]; group nine: 35 mg/kg compound 1 i.v. qdx28 and paclitaxel 16 mg/kg i.p. qdx5): 75.1%
Tumour growth inhibition (TGI) ([2]; group seven: 20 mg/kg compound 1 i.v. qdx28 and paclitaxel 16 mg/kg i.p. qdx5): 56.9%
EC50 (HUVEC tube formation): 250 µM
